Source: patent US4398029A, “Quinoline carboxylic acid derivatives and process for the preparation” (Kyorin Seiyaku Kabushiki Kaisha, priority 1981, dated 1983)
Values after ≈ are worked out from the molar mass of the structure shown. Where two headings read alike, the source gives them in different places.

Key:
[1] = tested on: Shigella sonnei IID 969; test: microbe, parasite or virus in culture; type: cell-based; conditions: Shigella sonnei, IID969, Shigella sonnei IID 969; read-out: Minimum inhibitory concentration
Experimental: (§1) The antibacterial activities of the compounds of the present invention were assayed by the standard agar dilution streak method against Gram-positive and Gram-negative bacteria [Chemotherapy, 22, 1126 (1974)].

[2] = tested on: E. coli ATCC 10536; test: Antibacterial activity (MIC), standard agar dilution streak method; type: cell-based, Escherichia coli; conditions: for MIC: Escherichia coli, ATCC10536, read-out: Minimum inhibitory concentration
Experimental: as §1

[3] = tested on: P. aeruginosa IFO 12689; test: as above; type: cell-based, Pseudomonas aeruginosa; conditions: Pseudomonas aeruginosa, IFO12689, P. aeruginosa IFO 12689; read-out: Minimum inhibitory concentration
Experimental: as §1

[4] = tested on: S. aureus Terajima; test: as above; type: cell-based, Staphylococcus aureus; conditions: Staphylococcus aureus; S. aureus Terajima; read-out: Minimum inhibitory concentration
Experimental: as §1

[5] = tested on: Salmonella enteritidis IID 604; test: as above; type: cell-based; conditions: Salmonella enterica; Salmonella enteritidis IID 604; read-out: Minimum inhibitory concentration
Experimental: as §1

[6] = tested on: P. morganii IID 602; test: as above; type: cell-based; conditions: Morganella morganii, IID602, P. morganii IID 602; read-out: Minimum inhibitory concentration
Experimental: as §1

[7] = tested on: Alcaligenes faecalis 0104002; test: as above; type: cell-based; conditions: for MIC: read-out: Minimum inhibitory concentration
Experimental: as §1

[8] = tested on: Escherichia coli NIHJ JC-2; test: as above; type: cell-based; conditions: for MIC: read-out: Minimum inhibitory concentration
Experimental: as §1

[9] = tested on: Klebsiella pneumoniae IFO 3512; test: as above; type: cell-based; conditions: read-out: Minimum inhibitory concentration
Experimental: as §1

[10] = tested on: Bacillus subtilis PCI 219; test: as above; type: cell-based; conditions: PCI219; Bacillus subtilis PCI 219; read-out: Minimum inhibitory concentration
Experimental: as §1

[11] = tested on: Staphylococcus aureus 209 p; test: as above; type: cell-based; conditions: Staphylococcus aureus 209 p; for MIC: read-out: Minimum inhibitory concentration
Experimental: as §1

[12] = tested on: Enterobacter cloacae IID 977; test: as above; type: cell-based; conditions: read-out: Minimum inhibitory concentration
Experimental: as §1

[13] = tested on: Proteus vulgaris 3167; test: as above; type: cell-based; conditions: read-out: Minimum inhibitory concentration
Experimental: as §1

[14] = tested on: P. mirabilis IID 994; test: as above; type: cell-based; conditions: Proteus mirabilis, IID994; P. mirabilis IID 994; read-out: Minimum inhibitory concentration
Experimental: as §1

[15] = tested on: Acinetobacter anitratus IID 876; test: as above; type: cell-based; conditions: Acinetobacter calcoaceticus, IID876, read-out: Minimum inhibitory concentration
Experimental: as §1

[16] = tested on: Yersinia enterocolitica IID 981; test: as above; type: cell-based; conditions: read-out: Minimum inhibitory concentration
Experimental: as §1

[17] = tested on: Pseudomonas aeruginosa V-1; test: as above; type: cell-based; conditions: read-out: Minimum inhibitory concentration
Experimental: as §1

[18] = tested on: S. epidermidis IID 866; test: as above; type: cell-based; conditions: Staphylococcus epidermidis, IID866, read-out: Minimum inhibitory concentration
Experimental: as §1

[19] = tested on: Citrobacter freundii IID 976; test: as above; type: cell-based; conditions: read-out: Minimum inhibitory concentration
Experimental: as §1

[20] = tested on: Serratia marcescens IID 618; test: as above; type: cell-based; conditions: for MIC: read-out: Minimum inhibitory concentration
Experimental: as §1

[21] = Alcaligenes faecalis, 0104002, Alcaligenes faecalis 0104002
[22] = Escherichia coli, NIHJJC2, Escherichia coli NIHJ JC-2
[23] = Klebsiella pneumoniae, IFO3512, Klebsiella pneumoniae IFO 3512
[24] = Enterobacter cloacae, IID977, Enterobacter cloacae IID 977
[25] = Proteus vulgaris, 3167, Proteus vulgaris 3167
[26] = Yersinia enterocolitica, IID981, Yersinia enterocolitica IID 981
[27] = Citrobacter freundii, IID976, Citrobacter freundii IID 976
[28] = Serratia marcescens, IID618, Serratia marcescens IID 618
[29] = NIHJJC2, Escherichia coli NIHJ JC-2
[30] = IFO3512, Klebsiella pneumoniae IFO 3512
[31] = IID977, Enterobacter cloacae IID 977
[32] = IID981, Yersinia enterocolitica IID 981
[33] = IID976, Citrobacter freundii IID 976
[34] = IID618, Serratia marcescens IID 618
[35] = Pseudomonas aeruginosa, V1, Pseudomonas aeruginosa V-1

SMILES: CCn1cc(C(=O)O)c(=O)c2cc(F)c(N3CCOCC3)c(F)c21 [Example 12, 1-Ethyl-6,8-difluoro-1,4-dihydro-7-(4-morpholinyl)4-oxoquinoline-3-carboxylic acid]
- MIC [1]: 0.2 µg/mL (≈ 0.591 µM)
- MIC [2]: 0.39 µg/mL (≈ 1.15 µM)
- MIC [3]: 12.5 µg/mL (≈ 36.9 µM)
- MIC [4]: 0.39 µg/mL (≈ 1.15 µM)
- MIC [5]: 1.56 µg/mL (≈ 4.61 µM)
- MIC [6]: 0.78 µg/mL (≈ 2.31 µM)
- MIC [7, 21]: 1.56 µg/mL (≈ 4.61 µM)
- MIC [8, 22]: 0.2 µg/mL (≈ 0.591 µM)
- MIC [9, 23]: ≤ 0.05 µg/mL
- MIC [10]: ≤ 0.05 µg/mL
- MIC [11]: 0.2 µg/mL (≈ 0.591 µM)
- MIC [12, 24]: 1.56 µg/mL (≈ 4.61 µM)
- MIC [13, 25]: ≤ 0.05 µg/mL
- MIC [14]: 0.2 µg/mL (≈ 0.591 µM)
- MIC [15]: 1.56 µg/mL (≈ 4.61 µM)
- MIC [16, 26]: 0.39 µg/mL (≈ 1.15 µM)
- MIC ([17]; V1, Pseudomonas aeruginosa V-1): 12.5 µg/mL (≈ 36.9 µM)
- MIC [18]: 0.39 µg/mL (≈ 1.15 µM)
- MIC [19, 27]: 0.78 µg/mL (≈ 2.31 µM)
- MIC [20, 28]: 1.56 µg/mL (≈ 4.61 µM)

SMILES: Cl.O=C(O)c1cn(CCO)c2c(F)c(N3CCNCC3)c(F)cc2c1=O [Example 14, 6,8-Difluoro-1,4-dihydro-1-(2-hydroxyethyl)-4-oxo-7-(1-piperazinyl)-quinoline-3-carboxylic acid hydrochloride]
- MIC [1]: 0.2 µg/mL
- MIC [2]: 0.39 µg/mL
- MIC [3]: 12.5 µg/mL
- MIC [4]: 25 µg/mL
- MIC [5]: 0.39 µg/mL
- MIC ([7]; Alcaligenes faecalis 0104002): 100 µg/mL
- MIC [8, 29]: 0.39 µg/mL
- MIC [9, 30]: 0.39 µg/mL
- MIC [10]: 3.13 µg/mL
- MIC [11]: 12.5 µg/mL
- MIC [12, 31]: 0.39 µg/mL
- MIC ([13]; Proteus vulgaris 3167): 0.39 µg/mL
- MIC [15]: 25 µg/mL
- MIC [16, 32]: 0.39 µg/mL
- MIC [18]: 12.5 µg/mL
- MIC [19, 33]: 0.2 µg/mL
- MIC [20, 34]: 6.25 µg/mL

SMILES: CCn1cc(C(=O)O)c(=O)c2cc(F)c(N3CCCC(O)C3)c(F)c21 (stereo not drawn) [Example 10, 1-Ethyl-6,8-difluoro-1,4-dihydro-7-(3-hydroxy-1-piperidinyl)-4-oxoquinoline-3-carboxylic acid]
- MIC [1]: 0.78 µg/mL (≈ 2.21 µM)
- MIC [2]: 0.78 µg/mL (≈ 2.21 µM)
- MIC [3]: 25 µg/mL (≈ 71 µM)
- MIC [5]: 6.25 µg/mL (≈ 17.7 µM)
- MIC [6]: 1.56 µg/mL (≈ 4.43 µM)
- MIC [7, 21]: 3.13 µg/mL (≈ 8.88 µM)
- MIC [9, 23]: 0.1 µg/mL (≈ 0.284 µM)
- MIC [10]: ≤ 0.05 µg/mL
- MIC [11]: 0.2 µg/mL (≈ 0.568 µM)
- MIC [12, 31]: 6.25 µg/mL (≈ 17.7 µM)
- MIC [13, 25]: 0.1 µg/mL (≈ 0.284 µM)
- MIC [15]: 1.56 µg/mL (≈ 4.43 µM)
- MIC [16, 26]: 1.56 µg/mL (≈ 4.43 µM)
- MIC ([17]; V1, Pseudomonas aeruginosa V-1): 25 µg/mL (≈ 71 µM)
- MIC [18]: 0.78 µg/mL (≈ 2.21 µM)
- MIC [19, 27]: 1.56 µg/mL (≈ 4.43 µM)
- MIC [20, 28]: 3.13 µg/mL (≈ 8.88 µM)

SMILES: CN1CCN(c2c(F)cc3c(=O)c(C(=O)O)cn(CCF)c3c2F)CC1.Cl [Example 5, 6,8-Difluoro-1-(2-fluoroethyl)-1,4-dihydro-7-(4-methyl-1-piperazinyl)-4-oxoquinoline-3-carboxylic acid hydrochloride]
- MIC [1]: ≤ 0.05 µg/mL
- MIC [2]: 0.1 µg/mL
- MIC [3]: 3.13 µg/mL
- MIC [4]: 0.78 µg/mL
- MIC [6]: 0.1 µg/mL
- MIC [7, 21]: 0.78 µg/mL
- MIC [8, 22]: ≤ 0.05 µg/mL
- MIC [9, 23]: ≤ 0.05 µg/mL
- MIC [10]: 0.1 µg/mL
- MIC [11]: 0.78 µg/mL
- MIC [12, 24]: 0.1 µg/mL
- MIC [13, 25]: ≤ 0.05 µg/mL
- MIC [14]: ≤ 0.05 µg/mL
- MIC [15]: 0.39 µg/mL
- MIC [16, 26]: 0.1 µg/mL
- MIC ([17]; V1, Pseudomonas aeruginosa V-1): 3.13 µg/mL
- MIC [18]: 0.78 µg/mL
- MIC [19, 27]: ≤ 0.05 µg/mL
- MIC [20, 28]: 0.1 µg/mL

SMILES: C=CCn1cc(C(=O)O)c(=O)c2cc(F)c(N3CCNCC3)c(F)c21.Cl [Example 3, 1-Allyl-6,8-difluoro-1,4-dihydro-4-oxo-7-(1-piperazinyl)quinoline-3-carboxylic acid hydrochloride]
- MIC [1]: 0.1 µg/mL
- MIC [2]: 0.39 µg/mL
- MIC [3]: 6.25 µg/mL
- MIC [4]: 3.13 µg/mL
- MIC [5]: 0.2 µg/mL
- MIC [6]: 0.39 µg/mL
- MIC ([7]; Alcaligenes faecalis 0104002): 3.13 µg/mL
- MIC [9, 30]: 0.1 µg/mL
- MIC [10]: 0.39 µg/mL
- MIC [11]: 3.13 µg/mL
- MIC [12, 31]: 0.78 µg/mL
- MIC ([13]; Proteus vulgaris 3167): 0.1 µg/mL
- MIC [14]: 0.2 µg/mL
- MIC [15]: 3.13 µg/mL
- MIC [16, 32]: 0.39 µg/mL
- MIC [17, 35]: 12.5 µg/mL
- MIC [18]: 3.13 µg/mL
- MIC [19, 33]: 0.2 µg/mL
- MIC [20, 34]: 0.39 µg/mL

SMILES: CCn1cc(C(=O)O)c(=O)c2cc(F)c(N3CCC(O)CC3)c(F)c21 [Example 9, 1-Ethyl-6,8-difluoro-1,4-dihydro-7-(4-hydroxy-1-piperidinyl)-4-oxoquinoline-3-carboxylic acid]
- MIC [1]: 0.2 µg/mL (≈ 0.568 µM)
- Minimum inhibitory concentration [2]: 0.20 µg/mL (≈ 0.568 µM)
- MIC [3]: 12.5 µg/mL (≈ 35.5 µM)
- MIC [4]: 0.2 µg/mL (≈ 0.568 µM)
- MIC [5]: 1.56 µg/mL (≈ 4.43 µM)
- MIC [6]: 0.78 µg/mL (≈ 2.21 µM)
- Minimum inhibitory concentration ([7]; Alcaligenes faecalis 0104002): 1.56 µg/mL (≈ 4.43 µM)
- Minimum inhibitory concentration ([8]; Escherichia coli NIHJ JC-2): 0.20 µg/mL (≈ 0.568 µM)
- MIC [9, 23]: ≤ 0.05 µg/mL
- MIC [10]: ≤ 0.05 µg/mL
- Minimum inhibitory concentration [11]: 0.20 µg/mL (≈ 0.568 µM)
- MIC [13, 25]: ≤ 0.05 µg/mL
- MIC [15]: 1.56 µg/mL (≈ 4.43 µM)
- MIC [16, 26]: 0.78 µg/mL (≈ 2.21 µM)
- MIC [17, 35]: 6.25 µg/mL (≈ 17.7 µM)
- MIC [18]: 0.39 µg/mL (≈ 1.11 µM)
- MIC [19, 27]: 0.78 µg/mL (≈ 2.21 µM)
- Minimum inhibitory concentration ([20]; Serratia marcescens IID 618): 1.56 µg/mL (≈ 4.43 µM)

SMILES: Cl.Cn1cc(C(=O)O)c(=O)c2cc(F)c(N3CCNCC3)c(F)c21 [Example 1, 6,8-Difluoro-1,4-dihydro-1-methyl-4-oxo-7-(1-piperazinyl)quinoline-3-carboxylic acid hydrochloride]
- MIC [1]: ≤ 0.05 µg/mL
- MIC [2]: 0.1 µg/mL
- MIC [3]: 1.56 µg/mL
- MIC [4]: 3.13 µg/mL
- MIC [5]: 0.1 µg/mL
- MIC [6]: 0.2 µg/mL
- MIC ([7]; Alcaligenes faecalis 0104002): 6.25 µg/mL
- MIC [8, 29]: ≤ 0.05 µg/mL
- MIC [9, 30]: ≤ 0.05 µg/mL
- MIC [10]: 0.39 µg/mL
- MIC [11]: 3.13 µg/mL
- MIC [12, 31]: 0.1 µg/mL
- MIC [14]: 0.1 µg/mL
- MIC [15]: 1.56 µg/mL
- MIC [16, 32]: 0.1 µg/mL
- MIC [17, 35]: 3.13 µg/mL
- MIC [18]: 3.13 µg/mL
- MIC [19, 33]: ≤ 0.05 µg/mL
- MIC [20, 34]: 0.1 µg/mL
